Test results as given in patent publication EP2752191A1, “Compositions and methods using hdm2 antagonist and mek inhibitor” (SANOFI, priority 2013, dated 2014).

What was measured:
90 non-kinase targets = details: tested at 10 µM; cited from earlier work
217 kinases = details: tested at 10 µM; cited from earlier work
C32 cells = assay: ATPLite growth inhibition 72 h, dose matrix (Example 1); type: cell-based; details: single agents, or Compound (1) with Compound (6) present at 1.1 uM; 72 h (FIG. 2)
Protocol: (§1) The combinations of HDM2-p53 inhibitor and MEK inhibitor were examined in a panel of twenty cell lines (Table 2).
(§2) A 36-point combination dose response matrix over a treatment time of seventy-two hours was used. The method by which this screen was performed is described below.
(§3) Cells were thawed from a liquid nitrogen preserved state. Once cells had been expanded and divided at their expected doubling times, cells were seeded in complete media (Table 3) at 100 cells per well in black 1536 tissue culture treated plates. Assay plates were centrifuged for 2 min at 335 x g, incubated at room temperature for 20 min, and incubated at 37° C for 24 hours before treatment.
(§4) ATP levels were used as a measure of cell number (cell growth). At the time of treatment, ATP levels were measured in an untreated set of assay plates (Tzero plates). ATP levels were measured by adding ATPLite (Perkin Elmer) according to manufacturer's instructions. The Tzero plates were read using ultra-sensitive luminescence on Envision Plate Readers. […]
(§5) Growth Inhibition (GI) was used as a measure of cell viability. As described above, ATP levels were measured at the time of dosing (T0) and after 72 hours (T72). The effect of vehicle alone on cell viability was determined by measuring ATP levels at T0 and 72 hours after treatment of cells with vehicle alone (T72). […]

MV4-11 cells = assay: as above; type: cell-based; details: single agents, or Compound (1) with Compound (6) present at 3.3 uM; 72 h (FIG. 3)
Protocol: as §1, §2, §3, §4, §5

[1] = test system: panel of twenty cell lines; assay: HDM2-p53 inhibitor / MEK inhibitor combination screen, ATPLite growth inhibition 72 h, Loewe synergy (Example 1); type: cell-based; details: at an FDR < 5% in some cell lines (FIG. 1)
Protocol: as §1, §2, §3
ATP levels were used as a measure of cell number (cell growth). At the time of treatment, ATP levels were measured in an untreated set of assay plates (Tzero plates). ATP levels were measured by adding ATPLite (Perkin Elmer) according to manufacturer's instructions. The Tzero plates were read using ultra-sensitive luminescence on Envision Plate Readers. Assay plates receiving treatment were incubated with compound for 72 h at 37° C with 5% CO2. After 72 h, plates were developed for endpoint analysis using ATPLite.
Assay plates were accepted for analysis if they passed the following quality control standards: relative luciferase values were consistent throughout the entire experiment, Z' factor scores were greater than 0.6, untreated/vehicle controls behaved consistently on the plate. The calculation for synergy score is provided below.
Growth Inhibition (GI) was used as a measure of cell viability. As described above, ATP levels were measured at the time of dosing (T0) and after 72 hours (T72). The effect of vehicle alone on cell viability was determined by measuring ATP levels at T0 and 72 hours after treatment of cells with vehicle alone (T72).
GI was calculated by applying the following test and equation: If T < V0 :100*(1-T-V0/V0) [formula] If T ≥ V0 :100*(1-T-V0/V-V0) [formula]
Where T is the signal measure for a test article, V is the vehicle-treated control measure, and V0 is the vehicle control measure at time zero. This formula is derived from the Growth Inhibition calculation used in the National Cancer Institute's NCI-60 high throughput screen, as described on the world wide web at dtp.nci.nih.gov/branches/btb/ivclsp.html. A GI reading of 0% represents no growth inhibition-that is, cells treated with compound had similar levels of ATP as cells treated with vehicle and measured at 72 hours. A GI of 100% represents complete growth inhibition-that is, cells treated with compound had similar levels of ATP as cells treated with vehicle and measured at T0. A GI of 100% where cell numbers have not increased during the treatment period is indicative of a cytostatic effect for compounds reaching a plateau at this effect level. A GI of 200% represents complete death of all cells in the culture well which is indicative of an apoptotic effect.
For each cell line, the dose-response curve was measured with each HDM2-p53 antagonist and each MEK inhibitor as single agents and in pair wise combinations. Using the potency values from the single agent dose-response curves, the compounds were assigned to different groups of similar potency. Multiple doses above and below the EC50 of a given HDM2-p53 antagonist or MEK inhibitor were measured.
In each well of a plate, ATP levels were measured by […] assay as described above. ATP levels are proportional to the number of remaining live cells. […]

## O=C(NC[C@H](O)CO)c1ccncc1Nc1ccc(I)cc1F [Compound (4), N-((S)-2,3-dihydroxypropyl)-3-(2-fluoro-4-iodo-phenylamino)isonicotinamide]
90 non-kinase targets
  activity against 90 non-kinase targets: no activity
217 kinases
  activity against 217 kinases: no activity

## Cn1cnc2c(F)c(Nc3ccc(Br)cc3Cl)c(C(=O)NOCCO)cc21 [Compound (6)]
C32 cells
  effect on C32 cells (growth inhibition): cytostasis
MV4-11 cells
  effect on MV4-11 cells (growth inhibition): cytostasis
[1]
  Loewe synergy with both Compound (1) and Compound (2): statistically significant Loewe synergy

## O=C(NOCC(O)CO)c1ccc(F)c(F)c1Nc1ccc(I)cc1F (stereo not drawn) [Compound (7), N-(2,3-dihydroxy-propoxy)-3,4-difluoro-2-(2-fluoro-4-iodo-phenylamino)-benzamide]
[1]
  Loewe synergy with both Compound (1) and Compound (2): statistically significant Loewe synergy

## Cc1cnc(Nc2ccc(F)cc2Cl)nc1-c1c[nH]c(C(=O)N[C@H](CO)c2cccc(Cl)c2)c1 [Compound (8), 4-[2-(2-chloro-4-fluorophenylamino)-5-methylpyrimidin-4-yl]-N-[1(S)-(3-chlorophenyl)-2-hydroxyethyl]-1H-pyrrole-2-carboxamide]
[1]
  Loewe synergy with both Compound (1) and Compound (2): statistically significant Loewe synergy

## CNS(=O)(=O)Nc1nccc(Cc2c(C)c3ccc(Oc4ncccn4)cc3oc2=O)c1F [Compound (9), N-[3-fluoro-4-[4-methyl-2-oxo-7-(pyrimidin-2-yloxy)-2H-1-benzopyran-3-ylmethyl]pyridin-2-yl]-N'-methylsulfamide]
[1]
  Loewe synergy with both Compound (1) and Compound (2): statistically significant Loewe synergy

## COc1cc2c(Nc3ccc(Oc4ccccc4)cc3)c(C#N)cnc2cc1OCCCN1CCOCC1 [Compound (10), 6-methoxy-7-[3-(4-morpholinyl)propoxy]-4-(4-phenoxyphenylamino)quinoline-3-carbonitrile]
[1]
  Loewe synergy with both Compound (1) and Compound (2): statistically significant Loewe synergy
